Experimental findings from article PMC7948460, “Volatile allosteric antagonists of mosquito odorant receptors inhibit human-host attraction” (The Journal of Biological Chemistry, 2020) are described below.

Where “and” joins values, the source holds several entries; their conditions need not be identical. Identical values can stand only once. Like-named read-outs stand apart in the source and are kept apart here.

In one data set the test system is Ae. albopictus. As to the kind of experiment: Repellence bioassay, human hand landing counts. It is filed as in vivo, Aedes albopictus.
The target of a further data set is T1, AgamORco (Anopheles gambiae, UniProt Q7QCC7).
T1 sequence (Q7QCC7 1-478): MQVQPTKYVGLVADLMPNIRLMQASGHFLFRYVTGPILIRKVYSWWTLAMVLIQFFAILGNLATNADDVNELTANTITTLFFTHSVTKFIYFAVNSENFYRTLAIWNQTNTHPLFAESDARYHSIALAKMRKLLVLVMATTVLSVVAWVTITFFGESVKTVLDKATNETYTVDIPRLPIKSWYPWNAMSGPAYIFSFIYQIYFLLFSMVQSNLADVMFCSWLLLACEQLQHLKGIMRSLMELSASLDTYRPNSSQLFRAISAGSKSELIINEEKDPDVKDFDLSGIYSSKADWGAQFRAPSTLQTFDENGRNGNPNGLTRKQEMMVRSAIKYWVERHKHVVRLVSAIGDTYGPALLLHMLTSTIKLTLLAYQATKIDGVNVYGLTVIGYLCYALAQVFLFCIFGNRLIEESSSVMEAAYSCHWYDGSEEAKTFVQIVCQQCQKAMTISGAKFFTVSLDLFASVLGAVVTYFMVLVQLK
Put plainly: cell-based.

The next data set has as its target T2, AaegORco (Aedes aegypti, UniProt Q178U6).
T2 construct: expressed in transfected cells; host or cells: Xenopus laevis oocytes microinjected with cRNA transcribed from the pSP64tRFA vector
T2 sequence (Q178U6 1-478): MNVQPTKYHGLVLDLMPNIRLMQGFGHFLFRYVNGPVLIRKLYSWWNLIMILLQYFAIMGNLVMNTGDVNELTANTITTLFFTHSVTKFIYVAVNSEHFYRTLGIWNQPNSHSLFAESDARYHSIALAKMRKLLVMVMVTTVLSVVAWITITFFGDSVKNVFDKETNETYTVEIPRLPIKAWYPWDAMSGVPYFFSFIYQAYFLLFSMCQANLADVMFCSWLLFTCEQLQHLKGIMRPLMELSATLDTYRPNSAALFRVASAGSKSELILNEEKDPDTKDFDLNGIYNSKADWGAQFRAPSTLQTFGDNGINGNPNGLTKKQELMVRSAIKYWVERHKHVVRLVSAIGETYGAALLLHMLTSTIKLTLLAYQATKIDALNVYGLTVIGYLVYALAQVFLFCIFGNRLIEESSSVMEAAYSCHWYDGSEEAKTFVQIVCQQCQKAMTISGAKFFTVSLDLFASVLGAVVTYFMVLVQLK
As to the kind of experiment: Two-microelectrode voltage-clamp recordings of Xenopus laevis oocytes expressing AaegORco, VUAA1-induced currents. It is filed as cell-based. Conditions: 200 μM VUAA1 with equimolar compound; for Normalized response (%) of AaegORco to VUAA1 in combination with compound: printed in picture Fig. 4B. Here is the method: Across all treatments, we observed a consistent increase in the third VUAA1-induced response relative to the first and second VUAA1 administrations (Fig. 4A). For this reason, the inhibition level (Fig. 4B) was calculated by normalizing the response amplitude elicited by the second stimulation, to the average current responses elicited by the first and last VUAA1 stimulations.
In vitro transcription and two-microelectrode voltage-clamp electrophysiological recordings were performed as described ([62]). Briefly, ORco of Ae. aegypti (AaegORco; GenBank: BK006142.1) was synthesized using the mMESSAGE mMACHINE SP6 kit (ThermoFisher Scientific) from the linearized pSP64tRFA expression vector. The harvested X. laevis oocytes were manually separated from the ovaries prior to collagenase treatment (8 mg/ml, 30 min, 18 °C) in order to remove the follicular layer. Stage V–VI oocytes were rinsed in washing solution (96 mM NaCl, 2 mM KCl, 5 mM MgCl2, and 5 mM Hepes, pH 7.6) and microinjected with a mixture of 1 μl AaegOrco (3 μg/μl) and 2 μl of double-distilled water. Injected oocytes were incubated at 18 °C for 3 days in Ringer’s solution (96 mM NaCl, 2 mM KCl, 5 mM MgCl2, 0.8 mM CaCl2, and 5 mM Hepes, pH 7.6) supplemented with 5% dialyzed horse serum, 50 μg/ml tetracycline, 100 μg/ml streptomycin, and 550 μg/ml sodium pyruvate. Whole-cell currents were recorded using the two-microelectrode voltage-clamp technique. During recording sessions, the holding potential was maintained at −80 mV using an OC-725C oocyte clamp (Warner Instruments, LLC). Oocytes were placed in a RC-3Z oocyte recording chamber (Warner Instruments) and exposed for 8 s to 200 μM VUAA1 (Innovapharm Ltd), 2,4-octadienal predominantly trans (Sigma-Aldrich), or carvacrol (Sigma-Aldrich). All compounds were solubilized in 200 μl of DMSO prior to the dilutions in the Ringer’s solution. Currents were allowed to return to baseline between odorant applications. Data acquisition and concentration–response analyses were carried out with a Digidata 1550A and the pCLAMP10 software (Molecular Devices). Statistical significance was evaluated with one-way ANOVA followed by Tukey's post test.

The next data set has as its system Bm5 cells. As to the kind of experiment: Toxicity to the AgamORco/Photina-expressing Bm5 cells during dose-response evaluation. The data set is classed as cell-based. The note with it: Bombyx mori, Bm5 cells stably expressing AgamORco and Photina.
Where [1] appears, read: 0.01 μL equivalent per cm^2, 5 min.
The mark [2] stands for this setting: 0.04 μL equivalent per cm^2, 5 min.
Where [3] appears, read: 0.2 μL equivalent per cm^2, 5 min.
[4] abbreviates: 50 μM ORcoRAM2 (OA), read-out: IC50 in binding competition assay.
[5] abbreviates: 50 μM ORcoRAM2 (OA), read-out: pIC50 in binding competition assay (converted).
Setting [6] is: 100 μM ORcoRAM2 (OA), read-out: IC50, inhibition of OA-dependent AgamORco channel activity.
The mark [7] stands for this setting: 100 μM ORcoRAM2 (OA), read-out: pIC50, inhibition of OA-dependent AgamORco channel activity (converted).
The mark [8] stands for this setting: 150 μM ORcoRAM2 (OA), read-out: IC50 in binding competition assay.
Setting [9] is: 150 μM ORcoRAM2 (OA), read-out: pIC50 in binding competition assay (converted).

As for `CC(C)c1ccc(CO)cc1` [CA, Cumin alcohol], the Mean % repellency in the data set on Ae. albopictus (setting [1]) is 63.2% and 63.2 ± 11.8%; in the data set with Ae. albopictus (setting [2]) it was 78 ± 7%; in the data set with Ae. albopictus (setting [3]), 99.8 ± 0.7%. For the same molecule, the “Average landings (+ st. dev)” value is recorded as 20.1±6.5 in the data set with Ae. albopictus (0.01 μL per cm2, 5 min); 11.8±3.7 with Ae. albopictus (0.04 μL per cm2, 5 min); 0.1±0.4 with Ae. albopictus (0.2 μL per cm2, 5 min).

Usually EC50 stands for the concentration giving half of the maximal effect. As for `CCc1ccc(NC(=O)CSc2nnc(-c3ccccn3)n2CC)cc1` [ORcoRAM2, reference compound], the EC50 on AgamORco (absence of antagonist, read-out: EC50 of ORco agonist on AgamORco) was 91.3 µM and 91.9 µM and 91 µM.

For `CC(C)OC(=O)C=Cc1ccccc1` [IPC, Isopropyl cinnamate, reference compound], the Mean % repellency in the data set with Ae. albopictus (setting [3]) worked out at 96 ± 1.6%. The “Average landings (+ st. dev)” value with Ae. albopictus (0.2 μL per cm2, 5 min) was 2.1±0.8.

Consider `CCC/C=C/C=C/C=O` [OCT, (2E,4E)-2,4-Octadienal], for which the IC50 at AgamORco (setting [4]) is 41.8 µM; at AgamORco (setting [5]) it was 41.8 µM; on AgamORco (setting [6]), 59.8 µM; on AgamORco (setting [7]) it was 59.8 µM; on AgamORco (setting [8]), 117 µM; at AgamORco (setting [9]), 117 µM. Further, the Mean % repellency with Ae. albopictus (setting [1]) was 13.8% and 13.8 ± 12.8%; in the data set with Ae. albopictus (setting [2]) it was 97.9 ± 2.7%; in the data set with Ae. albopictus (setting [3]) it was 100 ± 0%. Moreover, the “Average landings (+ st. dev)” value in the data set with Ae. albopictus (0.01 μL per cm2, 5 min) worked out at 47.1±7.0; with Ae. albopictus (0.04 μL per cm2, 5 min) it was 1.1±1.5; in the data set on Ae. albopictus (0.2 μL per cm2, 5 min), 0±0. Also, at AaegORco, the “Reduction of VUAA1-activated currents” value is “approximately 60%”. At AaegORco, the “Normalized response (%) of AaegORco to VUAA1 in combination with compound” value is on record as -59.5%.

Take `Cc1ccc(C(C)C)cc1O` [CRV, Carvacrol]: the IC50 on AgamORco (setting [4]) is 26.3 µM; on AgamORco (setting [5]), 26.3 µM; on AgamORco (setting [6]), 23.4 µM; on AgamORco (setting [7]), 23.3 µM; on AgamORco (setting [8]), 28.4 µM; on AgamORco (setting [9]), 28.4 µM. For the same molecule, in the data set with Bm5 cells, the “Concentrations toxic to the cells” value is reported as “above 250 μM”. Further, the Mean % repellency in the data set on Ae. albopictus (setting [1]) was 67.8% and 67.8 ± 9%; with Ae. albopictus (setting [2]), 99.1 ± 2%; in the data set with Ae. albopictus (setting [3]), 99.8 ± 0.7%. Further, the “Average landings (+ st. dev)” value in the data set on Ae. albopictus (0.01 μL per cm2, 5 min) was found to be 17.6±4.9; in the data set with Ae. albopictus (0.04 μL per cm2, 5 min) it was 0.5±1.1; with Ae. albopictus (0.2 μL per cm2, 5 min), 0.1±0.4. Moreover, at AaegORco, the “Reduction of VUAA1-activated currents” value was around 85%. In addition, the “Normalized response (%) of AaegORco to VUAA1 in combination with compound” value on AaegORco was -84.8%.

`CC1=CCC2[C@H](C1)C2(C)C` (stereo partly drawn) [CAR, (1S)-3-Carene]: in the data set with Ae. albopictus (setting [3]), the Mean % repellency is 89.8 ± 4.3%. Also, the “Average landings (+ st. dev)” value in the data set with Ae. albopictus (0.2 μL per cm2, 5 min) worked out at 5.4±2.3.

Take `CCN(CC)C(=O)c1cccc(C)c1` [DEET, N,N-Diethyl-3-methylbenzamide, reference compound]: the Mean % repellency in the data set with Ae. albopictus (setting [1]) was 96.7% and 96.7 ± 2.6%; with Ae. albopictus (setting [2]) it was 100 ± 0%; in the data set with Ae. albopictus (setting [3]), 100 ± 0%. The “Average landings (+ st. dev)” value with Ae. albopictus (0.01 μL per cm2, 5 min) came out at 1.8±1.4; in the data set on Ae. albopictus (0.04 μL per cm2, 5 min) it was 0±0; in the data set on Ae. albopictus (0.2 μL per cm2, 5 min) it was 0±0.

Regarding `C=CC(C)(CCC=C(C)C)OC(C)=O` (stereo not drawn) [LA, Linalyl acetate], the Mean % repellency in the data set with Ae. albopictus (setting [3]) stood at 72.3 ± 15.6%. In addition, the “Average landings (+ st. dev)” value in the data set on Ae. albopictus (0.2 μL per cm2, 5 min) is reported as 14.6±8.1.
